Values of other authors as cited in patent US5006550A, “Chroman esters of phenols and benzoic acids having retinoid-like activity” (Allergan, Inc., priority 1989, dated 1991).

Test system: ornithine decarboxylase (ODC)
Settings: background statement on retinoic acid

SMILES: CC1=C(/C=C/C(C)=C/C=C/C(C)=C/C(=O)O)C(C)(C)CCC1 [Retinoic acid]
- inhibition of induction of ODC activity by TPA (in words): inhibits this induction of ODC activity by TPA
